Data: US20240124504A1, “AROMATIC HETEROCYCLIC COMPOUND, AND PHARMACEUTICAL COMPOSITION AND APPLICATION THEREOF” (GT APEIRON THERAPEUTICS LIMITED, priority 2020, published 2024)

Legend:
[1] = tested on: human breast cancer cells HCC70; assay: Cell biological activity detection (CyQuant, 72 hours), HCC70; format: cell-based; details: Homo sapiens, HCC70, 72 h, incubation for 72 hours
Method in brief: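 IC50 derived from CyQuant Direct nuclear staining (488 nm excitation) after 72 h compound exposure at 37 °C, 5% CO2. Compounds tested in 9 concentrations from 10 μM, 1:4 steps, 0.2% DMSO, on A2780 or HCC70 cells plated overnight at 2000/well in RPMI 1640 + 10% FBS.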

CDK9/cyclinT1 complex = CDK9/cyclinT1 complex (Homo sapiens, UniProt P50750); assay: In-vitro enzymatic inhibitory activity testing, CDK9 inhibition assay (Caliper EZ Reader II); format: biochemical; details: CDK9/cyclinT1 8 nM, 180 min at 27° C.
Sequence of CDK9/cyclinT1 complex (P50750 whole entry, species assumed): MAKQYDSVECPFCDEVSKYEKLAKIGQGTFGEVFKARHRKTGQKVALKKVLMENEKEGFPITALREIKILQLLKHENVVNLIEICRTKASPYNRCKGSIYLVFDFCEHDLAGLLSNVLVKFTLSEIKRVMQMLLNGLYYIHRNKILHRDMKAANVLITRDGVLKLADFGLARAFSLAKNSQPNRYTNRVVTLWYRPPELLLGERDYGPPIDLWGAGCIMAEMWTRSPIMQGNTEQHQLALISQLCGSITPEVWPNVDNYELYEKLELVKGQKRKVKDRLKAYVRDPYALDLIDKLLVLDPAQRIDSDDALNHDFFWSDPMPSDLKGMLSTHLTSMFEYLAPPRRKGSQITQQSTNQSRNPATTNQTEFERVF
Sequence of CDK9/cyclinT1 complex (O60563 whole entry partner, species assumed): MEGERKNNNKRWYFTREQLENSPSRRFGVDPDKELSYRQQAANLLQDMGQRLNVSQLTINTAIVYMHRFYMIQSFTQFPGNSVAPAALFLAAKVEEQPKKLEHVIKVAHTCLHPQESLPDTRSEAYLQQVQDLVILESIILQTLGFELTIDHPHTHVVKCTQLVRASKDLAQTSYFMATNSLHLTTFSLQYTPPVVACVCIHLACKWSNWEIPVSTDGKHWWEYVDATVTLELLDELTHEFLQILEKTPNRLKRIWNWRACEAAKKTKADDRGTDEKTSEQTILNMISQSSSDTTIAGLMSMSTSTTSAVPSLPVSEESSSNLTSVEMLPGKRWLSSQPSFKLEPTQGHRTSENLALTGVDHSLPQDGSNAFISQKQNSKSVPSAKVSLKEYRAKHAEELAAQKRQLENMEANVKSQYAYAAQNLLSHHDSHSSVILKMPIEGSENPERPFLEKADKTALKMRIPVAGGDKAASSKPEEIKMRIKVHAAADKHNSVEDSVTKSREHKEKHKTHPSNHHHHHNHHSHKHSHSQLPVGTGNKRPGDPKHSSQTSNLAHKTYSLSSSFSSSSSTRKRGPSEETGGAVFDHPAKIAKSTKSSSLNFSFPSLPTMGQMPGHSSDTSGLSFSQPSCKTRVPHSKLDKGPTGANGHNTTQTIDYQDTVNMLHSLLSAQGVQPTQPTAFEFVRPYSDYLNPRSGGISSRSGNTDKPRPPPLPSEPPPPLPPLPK
Method in brief: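 Phosphorylated and unphosphorylated fluorescent peptide were resolved by mobility-shift electrophoresis, with IC50 taken from a nonlinear regression of dose-response data. Reactions ran 180 min at 27 °C in MES buffer pH 6.5 with MgCl2, after 10 min enzyme–compound preincubation, using 8 nM CDK9/cyclinT1 and 5-FAM-CDK9tide.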

[2] = target: CDK7/cyclinH/MAT1 complex (Homo sapiens, UniProt P50613); assay: In-vitro enzymatic inhibitory activity testing, CDK7 inhibition assay (Caliper EZ Reader II); format: biochemical; details: CDK7/cyclinH/MAT1 6 nM, 180 min at 27° C.
Sequence of CDK7/cyclinH/MAT1 complex (P50613 whole entry, species assumed): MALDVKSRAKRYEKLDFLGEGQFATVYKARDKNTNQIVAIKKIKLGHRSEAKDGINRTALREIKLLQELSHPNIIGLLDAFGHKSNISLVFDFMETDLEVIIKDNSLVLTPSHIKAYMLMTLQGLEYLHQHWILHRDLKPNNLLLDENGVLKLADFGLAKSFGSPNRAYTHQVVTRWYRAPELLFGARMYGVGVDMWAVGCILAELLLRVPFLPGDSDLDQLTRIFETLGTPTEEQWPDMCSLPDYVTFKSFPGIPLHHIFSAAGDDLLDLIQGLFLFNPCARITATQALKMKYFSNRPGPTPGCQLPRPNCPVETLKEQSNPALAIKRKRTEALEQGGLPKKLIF
Sequence of CDK7/cyclinH/MAT1 complex (P51946 whole entry partner, species assumed): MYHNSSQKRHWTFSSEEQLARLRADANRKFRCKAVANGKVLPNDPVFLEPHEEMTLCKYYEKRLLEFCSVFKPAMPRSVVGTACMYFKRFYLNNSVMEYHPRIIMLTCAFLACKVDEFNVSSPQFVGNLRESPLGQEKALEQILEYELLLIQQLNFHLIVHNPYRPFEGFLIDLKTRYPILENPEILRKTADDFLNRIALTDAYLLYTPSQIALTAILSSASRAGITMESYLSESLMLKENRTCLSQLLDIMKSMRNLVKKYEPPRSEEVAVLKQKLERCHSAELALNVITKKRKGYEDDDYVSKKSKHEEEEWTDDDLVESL
Sequence of CDK7/cyclinH/MAT1 complex (P51948 whole entry partner, species assumed): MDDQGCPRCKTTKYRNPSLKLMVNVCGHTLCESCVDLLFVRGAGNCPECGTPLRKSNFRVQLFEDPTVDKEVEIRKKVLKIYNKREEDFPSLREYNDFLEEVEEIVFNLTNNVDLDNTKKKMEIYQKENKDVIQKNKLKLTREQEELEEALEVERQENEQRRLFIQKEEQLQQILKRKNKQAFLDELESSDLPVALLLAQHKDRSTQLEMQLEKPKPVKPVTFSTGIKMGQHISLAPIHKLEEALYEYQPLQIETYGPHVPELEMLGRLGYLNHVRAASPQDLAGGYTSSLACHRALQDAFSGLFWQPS
Method in brief: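 Enzyme preincubated 10 min with compound, then peptide substrate plus ATP added in 80 mM MES pH 6.5, 10 mM MgCl2 buffer; 180 min at 27 °C, stopped with EDTA.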

[3] = target: T1, CDK12 (aa686-1082)/cyclinK complex (Homo sapiens, UniProt Q9NYV4); assay: In-vitro enzymatic inhibitory activity testing, CDK12 inhibition assay (Caliper EZ Reader II); format: biochemical; details: CDK12/cyclinK 50 nM, 180 min at 27° C.; read-out: CDK12 IC50
T1 construct: A CDK12 (aa686-1082)/cyclinK complex (50 nM)
T1 sequence (Q9NYV4 686-1082, species assumed): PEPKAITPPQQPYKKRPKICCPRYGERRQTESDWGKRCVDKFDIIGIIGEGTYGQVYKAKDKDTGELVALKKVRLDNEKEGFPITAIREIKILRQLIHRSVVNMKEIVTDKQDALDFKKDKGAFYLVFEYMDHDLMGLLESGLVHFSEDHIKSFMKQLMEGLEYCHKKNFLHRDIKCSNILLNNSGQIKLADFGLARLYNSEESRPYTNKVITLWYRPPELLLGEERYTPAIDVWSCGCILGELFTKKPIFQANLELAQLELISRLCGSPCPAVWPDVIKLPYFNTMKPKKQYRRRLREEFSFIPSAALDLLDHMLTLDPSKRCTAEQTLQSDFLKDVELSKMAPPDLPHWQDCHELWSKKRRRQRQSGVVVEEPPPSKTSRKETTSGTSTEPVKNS
T1 sequence (O75909 whole entry partner, species assumed, the tested form may be a part): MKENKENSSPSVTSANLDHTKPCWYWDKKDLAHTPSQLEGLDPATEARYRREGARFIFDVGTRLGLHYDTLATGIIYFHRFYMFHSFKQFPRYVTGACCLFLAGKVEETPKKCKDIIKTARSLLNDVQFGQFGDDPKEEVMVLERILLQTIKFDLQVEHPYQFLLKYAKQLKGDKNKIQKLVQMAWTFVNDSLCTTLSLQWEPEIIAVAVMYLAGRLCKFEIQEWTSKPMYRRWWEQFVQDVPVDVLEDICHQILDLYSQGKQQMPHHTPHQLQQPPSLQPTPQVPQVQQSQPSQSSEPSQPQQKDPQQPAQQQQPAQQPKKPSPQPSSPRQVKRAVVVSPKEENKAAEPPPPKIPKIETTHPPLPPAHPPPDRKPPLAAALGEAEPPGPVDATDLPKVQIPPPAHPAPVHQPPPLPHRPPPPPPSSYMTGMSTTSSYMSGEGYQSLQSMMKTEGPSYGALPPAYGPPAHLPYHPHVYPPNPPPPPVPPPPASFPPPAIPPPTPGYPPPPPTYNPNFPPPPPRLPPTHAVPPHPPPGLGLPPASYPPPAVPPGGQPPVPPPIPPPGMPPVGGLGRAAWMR
Method in brief: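 CDK12 (aa686-1082)/cyclinK complex at 50 nM was pre-incubated with compound for 10 min, then reacted 180 min at 27° C with ATP and 2 μM 5-FAM-CDK9tide in pH 6.5 MES buffer with 10 mM MgCl2. Reactions were EDTA-quenched and product resolved electrophoretically; IC50 from nonlinear curve fit.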

## CP(C)(=O)c1cccc2c(-c3nc(NC[C@H](F)CO)ncc3C(F)(F)F)c[nH]c12 [Compound 86, (S)-(3-(2-((2-fluoro-3-hydroxypropyl)amino)-5-(trifluoromethyl)pyrimidin-4-yl)-1H-indole-7-yl)dimethylphosphine oxide]
[1]
  IC50: 20 to 200 nM
CDK9/cyclinT1 complex
  IC50: > 50000 nM
[2]
  IC50: < 20 nM
[3]
  IC50: > 50000 nM

## CP(C)(=O)c1cccc2c(-c3nc(N[C@H]4COC[C@@H]4O)ncc3C(F)(F)F)c[nH]c12 [Compound 87]
[1]
  IC50: < 20 nM
CDK9/cyclinT1 complex
  IC50: > 50000 nM
[2]
  IC50: < 20 nM
[3]
  IC50: > 50000 nM

## CC[C@@H](CO)Nc1ncc(C(F)(F)F)c(-c2c[nH]c3c(P(C)(C)=O)cccc23)n1 [Compound 88, (S)-(3-(2-((1-hydroxybutan-2-yl)amino)-5-(trifluoromethyl)pyrimidin-4-yl)-1H-indole-7-yl)dimethylphosphine oxide]
[1]
  IC50: 20 to 200 nM
CDK9/cyclinT1 complex
  IC50: > 50000 nM
[2]
  IC50: < 20 nM
[3]
  IC50: > 50000 nM

## CP(C)(=O)c1cccc2c(-c3nc(NCCCO)ncc3C(F)(F)F)c[nH]c12 [Compound 89, (3-(2-((3-hydroxypropyl)amino)-5-(trifluoromethyl)pyrimidin-4-yl)-1H-indole-7-yl)dimethylphosphine oxide]
[1]
  IC50: < 20 nM
CDK9/cyclinT1 complex
  IC50: > 50000 nM
[2]
  IC50: < 20 nM
[3]
  IC50: > 50000 nM

## C[C@H](CO)Nc1ncc(C(F)(F)F)c(-c2c[nH]c3c(P(C)(C)=O)cccc23)n1 [Compound 93, (R)-(3-(2-((1-hydroxypropyl-2-yl)amino)-5-(trifluoromethyl)pyrimidin-4-yl)-1H-indole-7-yl)dimethylphosphine oxide]
[1]
  IC50: < 20 nM
CDK9/cyclinT1 complex
  IC50: > 50000 nM
[2]
  IC50: < 20 nM
[3]
  IC50: 5000 to 50000 nM

## CP(C)(=O)c1cccc2c(-c3nc(NC4(CO)CC4)ncc3C(F)(F)F)c[nH]c12 [Compound 94, (3-(2-((1-(hydroxymethyl)cyclopropyl)amino)-5-(trifluoromethyl)pyrimidin-4-yl)-1H-indole-7-yl)dimethylphosphine oxide]
[1]
  IC50: 20 to 200 nM
CDK9/cyclinT1 complex
  IC50: > 50000 nM
[2]
  IC50: 20 to 200 nM
[3]
  IC50: > 50000 nM

## CP(C)(=O)c1cccc2c(-c3nc(NC4(CO)CC(F)(F)C4)ncc3C(F)(F)F)c[nH]c12 [Compound 96, (3-(2-((3,3-difluoro-1-(hydroxymethyl)cyclobutyl)amino)-5-(trifluoromethyl)pyrimidin-4-yl)-1H-indole-7-yl)dimethylphosphine oxide]
[1]
  IC50: < 20 nM
CDK9/cyclinT1 complex
  IC50: > 50000 nM
[2]
  IC50: 20 to 200 nM
[3]
  IC50: > 50000 nM

## CP(C)(=O)c1cccc2c(-c3nc(NCCO)ncc3C(F)(F)F)c[nH]c12 [Compound 97, (3-(2-((2-hydroxyethyl)amino)-5-(trifluoromethyl)pyrimidin-4-yl)-1H-indole-7-yl)dimethylphosphine oxide]
[1]
  IC50: 20 to 200 nM
CDK9/cyclinT1 complex
  IC50: > 50000 nM
[2]
  IC50: < 20 nM
[3]
  IC50: > 50000 nM

## CP(C)(=O)c1cccc2c(-c3nc(NCC(F)(F)CO)ncc3C(F)(F)F)c[nH]c12 [Compound 102, (3-(2-((2,2-difluoro-3-hydroxypropyl)amino)-5-(trifluoromethyl)pyrimidin-4-yl)-1H-indole-7-yl)dimethylphosphine oxide]
[1]
  IC50: < 20 nM
CDK9/cyclinT1 complex
  IC50: > 50000 nM
[2]
  IC50: < 20 nM
[3]
  IC50: > 50000 nM

## C[C@@H](CO)Nc1ncc(Cl)c(-c2c[nH]c3c(P(C)(C)=O)cccc23)n1 [Compound 103, (S)-(3-(5-chloro-2-((1-hydroxypropan-2-yl)amino)pyrimidin-4-yl)-1H-indole-7-yl)dimethylphosphine oxide]
[1]
  IC50: 20 to 200 nM
CDK9/cyclinT1 complex
  IC50: > 50000 nM
[2]
  IC50: 20 to 200 nM
[3]
  IC50: > 50000 nM

## CP(C)(=O)c1cccc2c(-c3nc(NC4(CO)CC(F)C4)ncc3C(F)(F)F)c[nH]c12 (centres unmarked) [Compound 105, (3-(2-((3-fluoro-1-(hydroxymethyl)cyclobutyl)amino)-5-(trifluoromethyl)pyrimidin-4-yl)-1H-indole-7-yl)dimethylphosphine oxide]
[1]
  IC50: 20 to 200 nM
CDK9/cyclinT1 complex
  IC50: > 50000 nM
[2]
  IC50: 20 to 200 nM
[3]
  IC50: > 50000 nM
